Assays:
hAC8 = target: T1, hAC8 (Homo sapiens, UniProt P40145); assay: Cyclic AMP accumulation in HEK cells stably expressing AC8, stimulated with A23187 (HTRF); format: cell-based; conditions: HEK-AC8 cells; for inhibition at 30 µM: HEK293; for IC50: read-out: HEK-AC8 IC50
T1 construct: expressed in transfected cells
Description: (§1) Fresh powders of several robust inhibitors (>90% inhibition) were evaluated in multiple confirmation assays assessing the dose response relationship for inhibiting AC1 and AC8 activity. Confirmation assays used A23817 to selectively stimulate recombinant AC1 or AC8 in the HEK cell background (Cumbay and Watts (2001), J. Pharmacol Exp Ther 297:1201-1399). This approach takes advantage of one unique regulatory property of AC1 for the development of selective inhibitors. Both AC1 and AC8 are robustly activated by Ca^2+/CaM under a variety of conditions, whereas the effects of Ca^2+/CaM on AC3 are modest and conditional requiring activation by G proteins. Previous studies have identified unique Ca^2+/CaM binding domains as one possible site of interaction to achieve AC1 (vs. AC8) selectivity (Masada et al., 2012, Biochemistry 51:7917-7929).
(§2) The primary technology we employed to measure cAMP accumulation was a homogenous time-resolved fluorescence (HTRF) assay, the same technology utilized in the primary screen. […] This could be due to either 1) the chemical scaffolds are exquisitely selective toward the AC family of enzymes or 2) the library has not been screened against a sufficient number of targets. The answer is likely a combination of the two; nonetheless, the lack of biological data to date bodes well for these series and any potential off-target promiscuity.
(§3) Human embryonic kidney (HEK) cells stably expressing AC1, AC8, or AC1 with the MOR were cultured in Dulbecco's Modified Eagle Medium (Life Technologies, Grand Island, N.Y.) supplemented with 5% bovine calf serum (Hyclone, Logan, Utah), 5% fetal clone I (Hyclone), Antibiotic-Antimycotic (Life Technologies), and G418 (Invivogen, San Diego, Calif.) (HEK-AC1), or hygromycin B (Fisher Scientific, Pittsburgh, Pa.) (HEK-AC8), or G418 and puromycin (Sigma-Aldrich) (HEK-AC1/MOR). Chinese hamster ovary (CHO) cells expressing the MOR (CHO-MOR) in the PathHunter® β-Arrestin GPCR assay platform were purchased from DiscoveRx (Freemont, Calif.). Cells were grown in Ham's F12 media supplemented with 1 mM L-glutamine (Thermo Scientific, West Palm Beach, Fla.), 10% fetal bovine serum (Hyclone), 50 U/ml penicillin, 50 μg/ml streptomycin (Life Technologies), G418 and hygromycin B. Cells were grown and frozen as previously described (J. M. Conley, et al., J Vis Exp, e51218 (2014)).
(§4) Cyclic AMP accumulation was measured as previously described (Brust, et al., J. Pharmacol. Exp. Ther. 352, 480-493(2015)). Briefly, cryopreserved cells were thawed, resuspended in optiMEM (Life Technologies), and plated in white, flat bottom, low-volume, tissue culture-treated 384 well plates (PerkinElmer, Shelton, Conn.). Plates with cells were incubated in a 37° C. humidified incubator for 1 h. Inhibitors were added and plates were incubated at room temperature for 30 min followed by the addition of AC stimulants in the presence of 500 μM IBMX. Cells were incubated at room temperature for 1 h and cAMP accumulation was measured using Cisbio's cAMP kit (Cisbio Bioassays, Bedford, Mass.) according to the manufacturer's instructions.

hAC1 = target: T2, hAC1 (Homo sapiens, UniProt Q08828); assay: Cyclic AMP accumulation in HEK cells stably expressing AC1, stimulated with A23187 (HTRF); format: cell-based; conditions: HEK-AC1 cells; for inhibition at 30 µM: HEK293; for IC50: read-out: HEK-AC1 IC50
T2 construct: expressed in transfected cells
T2 sequence (Q08828 whole entry): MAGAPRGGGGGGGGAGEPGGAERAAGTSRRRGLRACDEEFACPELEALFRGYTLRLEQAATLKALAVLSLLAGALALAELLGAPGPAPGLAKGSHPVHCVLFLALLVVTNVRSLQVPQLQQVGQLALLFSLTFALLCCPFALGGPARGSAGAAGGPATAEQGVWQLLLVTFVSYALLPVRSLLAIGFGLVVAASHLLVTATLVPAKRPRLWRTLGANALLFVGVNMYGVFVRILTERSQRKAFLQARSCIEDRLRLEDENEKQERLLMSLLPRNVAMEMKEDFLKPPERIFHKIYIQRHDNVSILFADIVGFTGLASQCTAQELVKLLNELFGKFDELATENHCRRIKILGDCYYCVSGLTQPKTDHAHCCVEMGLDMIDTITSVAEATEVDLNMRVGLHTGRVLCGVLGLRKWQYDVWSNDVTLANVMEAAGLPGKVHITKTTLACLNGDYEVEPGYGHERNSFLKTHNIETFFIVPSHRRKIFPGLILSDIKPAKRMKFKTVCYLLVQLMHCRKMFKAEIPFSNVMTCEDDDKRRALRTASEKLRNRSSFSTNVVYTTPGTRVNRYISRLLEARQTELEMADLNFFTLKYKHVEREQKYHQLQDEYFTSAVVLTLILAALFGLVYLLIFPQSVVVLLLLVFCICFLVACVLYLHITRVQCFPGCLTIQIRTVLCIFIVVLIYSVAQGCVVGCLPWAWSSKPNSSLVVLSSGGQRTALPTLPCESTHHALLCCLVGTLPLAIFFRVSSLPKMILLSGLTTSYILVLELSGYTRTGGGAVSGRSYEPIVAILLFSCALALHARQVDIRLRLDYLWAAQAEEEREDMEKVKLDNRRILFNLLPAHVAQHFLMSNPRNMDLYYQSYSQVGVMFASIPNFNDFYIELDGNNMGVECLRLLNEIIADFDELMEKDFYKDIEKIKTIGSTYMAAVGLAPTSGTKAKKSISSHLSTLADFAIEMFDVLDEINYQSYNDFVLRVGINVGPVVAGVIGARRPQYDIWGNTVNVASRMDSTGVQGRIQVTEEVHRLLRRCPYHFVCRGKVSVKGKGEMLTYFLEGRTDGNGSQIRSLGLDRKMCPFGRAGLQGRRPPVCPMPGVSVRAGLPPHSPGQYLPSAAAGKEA
Description: The development and mechanistic characterization of AC1-selective small molecule inhibitors is believed to provide novel non-opioid weapons in the war on chronic pain. We identified our initial hits via screening 10,000 selected compounds from the Life Chemicals collection. The screen was carried out using HEK cells stably expressing AC1 (HEK-AC1) and cyclic AMP accumulation was stimulated using the Ca^2+ ionophore, A23187 to selectively activate AC1. Compounds with potential chemical liabilities and PAINs were removed from further evaluation (Baell and Holloway, J. Med. Chem. 2010, 53, 2719-2740).
as §1, §2, §3, §4

T1 sequence (P40145 whole entry): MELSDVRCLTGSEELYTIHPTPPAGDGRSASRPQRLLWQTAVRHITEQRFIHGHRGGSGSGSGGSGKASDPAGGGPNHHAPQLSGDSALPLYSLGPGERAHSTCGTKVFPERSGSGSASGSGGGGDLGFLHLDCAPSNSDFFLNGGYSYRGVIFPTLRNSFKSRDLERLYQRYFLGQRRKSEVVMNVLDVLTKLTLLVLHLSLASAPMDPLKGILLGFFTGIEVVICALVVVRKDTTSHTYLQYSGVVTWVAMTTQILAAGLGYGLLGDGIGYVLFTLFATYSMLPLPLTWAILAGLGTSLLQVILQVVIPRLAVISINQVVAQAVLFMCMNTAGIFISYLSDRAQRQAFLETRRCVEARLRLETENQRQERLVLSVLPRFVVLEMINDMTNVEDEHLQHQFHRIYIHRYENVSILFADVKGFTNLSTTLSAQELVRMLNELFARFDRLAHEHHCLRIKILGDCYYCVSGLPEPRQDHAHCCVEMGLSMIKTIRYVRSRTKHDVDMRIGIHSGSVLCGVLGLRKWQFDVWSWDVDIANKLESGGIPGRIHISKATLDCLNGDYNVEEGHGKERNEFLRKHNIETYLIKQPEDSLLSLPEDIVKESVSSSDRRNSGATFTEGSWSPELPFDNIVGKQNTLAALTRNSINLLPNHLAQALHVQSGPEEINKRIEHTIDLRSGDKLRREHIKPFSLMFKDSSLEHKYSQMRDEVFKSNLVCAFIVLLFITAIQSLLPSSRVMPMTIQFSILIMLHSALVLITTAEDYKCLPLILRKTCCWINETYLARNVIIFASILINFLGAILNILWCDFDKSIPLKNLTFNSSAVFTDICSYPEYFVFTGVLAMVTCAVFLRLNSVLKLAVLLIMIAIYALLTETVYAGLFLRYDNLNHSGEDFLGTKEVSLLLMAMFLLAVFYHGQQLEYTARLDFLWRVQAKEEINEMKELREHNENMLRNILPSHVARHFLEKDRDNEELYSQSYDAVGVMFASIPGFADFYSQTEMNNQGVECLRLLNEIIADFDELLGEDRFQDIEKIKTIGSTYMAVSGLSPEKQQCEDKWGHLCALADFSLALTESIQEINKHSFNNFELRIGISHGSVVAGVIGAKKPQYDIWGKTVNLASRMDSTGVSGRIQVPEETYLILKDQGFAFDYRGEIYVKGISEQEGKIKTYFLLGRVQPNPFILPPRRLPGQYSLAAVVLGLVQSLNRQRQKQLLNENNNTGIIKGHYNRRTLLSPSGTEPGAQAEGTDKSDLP

inhibition at 30 µM (hAC8) [%]	IC50 (hAC8) [µM]	inhibition at 30 µM (hAC1) [%]	IC50 (hAC1) [µM]	SMILES
79 ± 6	10 ± 0.4	85 ± 3	9.4 ± 1	COc1cc(C(=O)Nc2nnc(-c3ccc4c(c3)CCCC4)o2)cc(C(F)(F)F)c1 [AC10074, 3-methoxy-N-(5-(5,6,7,8-tetrahydronaphthalen-2-yl)-1,3,4-oxadiazol-2-yl)-5-(trifluoromethyl)benzamide]
38 ± 7	39 ± 16	83 ± 6	–	O=C(Nc1nnc(-c2ccc(F)cc2)o1)c1ccc(S(=O)(=O)N2CCCCC2)cc1 [AC10036, N-(5-(4-fluorophenyl)-1,3,4-oxadiazol-2-yl)-4-(piperidin-1-ylsulfonyl)benzamide]
80 ± 6	19.1 ± 5	100 ± 1	3.4 ± 1	O=C(Nc1nnc(-c2ccc3c(c2)CCCC3)o1)c1ccccc1 [AC10002, N-(5-(5,6,7,8-tetrahydronaphthalen-2-yl)-1,3,4-oxadiazol-2-yl)benzamide]
7 ± 4	–	74 ± 3	12.8 ± 1	O=C(Nc1nnc(C2CCCCC2)o1)c1ccc(F)cc1 [AC10053, N-(5-cyclohexyl-1,3,4-oxadiazol-2-yl)-4-fluorobenzamide]
90 ± 10	7.5 ± 1	97 ± 1	2.8 ± 0.6	O=C(Nc1nnc(-c2ccc(F)cc2)o1)c1ccc(-c2ccccc2)cc1 [AC10066, N-(5-(4-fluorophenyl)-1,3,4-oxadiazol-2-yl)-[1,1′-biphenyl]-4-carboxamide]
20 ± 6	–	73 ± 4	–	COc1ccc(C(=O)Nc2nnc(-c3ccc(F)cc3)o2)cc1 [AC10039, N-(5-(4-fluorophenyl)-1,3,4-oxadiazol-2-yl)-4-methoxybenzamide]
37 ± 9	76 ± 39	88 ± 5	9.5 ± 1	CSc1ccc(C(=O)Nc2nnc(-c3ccc4c(c3)OCCO4)o2)cc1 [AC10020, 4-methylthio-N-(5-(2,3-dihydrobenzo[b][1,4]dioxin-6-yl)-1,3,4-oxadiazol-2-yl)benzamide]
33 ± 3	71 ± 18	78 ± 3	10 ± 1	O=C(Nc1nnc(-c2ccc(F)cc2)o1)c1ccc(Br)cc1 [AC10008, 4-bromo-N-(5-(4-fluorophenyl)-1,3,4-oxadiazol-2-yl)benzamide]
57 ± 7	44 ± 6	85 ± 4	8.1 ± 2	Cc1ccc(C(=O)Nc2nnc(C3CCCCC3)o2)cc1C [AC10024, N-(5-cyclohexyl-1,3,4-oxadiazol-2-yl)-3,4-dimethylbenzamide]
88 ± 2	2 ± 0.4	98 ± 1	1.2 ± 0.2	CCc1ccc(C(=O)Nc2nnc(-c3ccc4c(c3)CCCC4)o2)cc1 [AC10062, 4-ethyl-N-(5-(5,6,7,8-tetrahydronaphthalen-2-yl)-1,3,4-oxadiazol-2-yl)benzamide]
78 ± 13	2.4 ± 0.02	85 ± 4	9.1 ± 3	Cc1cc(C(=O)Nc2nnc(-c3ccc4c(c3)CCCC4)o2)cc(C(F)(F)F)c1 [AC10072, 3-methyl-N-(5-(5,6,7,8-tetrahydronaphthalen-2-yl)-1,3,4-oxadiazol-2-yl)-5-(trifluoromethyl)benzamide]
41 ± 9	55 ± 20	81 ± 1	7.7 ± 1	O=C(Nc1nnc(-c2cccs2)o1)c1ccc(Br)cc1 [AC10009, 4-Bromo-N-(5-(thiophen-2-yl)-1,3,4-oxadiazol-2-yl)benzamide]
58 ± 1	29 ± 1	99 ± 2	5 ± 1	O=C(Nc1nnc(-c2ccc(F)cc2)o1)c1cccc(C(F)(F)F)c1 [AC10028, N-(5-(4-fluorophenyl)-1,3,4-oxadiazol-2-yl)-3-(trifluoromethyl)benzamide]
60 ± 8	25 ± 6	100 ± 1	3.4 ± 1	Cc1ccc(C(=O)Nc2nnc(-c3ccc4c(c3)CCCC4)o2)cc1 [AC10033, 4-methyl-N-(5-(5,6,7,8-tetrahydronaphthalen-2-yl)-1,3,4-oxadiazol-2-yl)benzamide]
82 ± 7	7.9 ± 3	100 ± 1	1.6 ± 0.2	O=C(Nc1nnc(-c2ccc3c(c2)CCCC3)o1)c1cccc(C(F)(F)F)c1 [AC10026, N-(5-(5,6,7,8-tetrahydronaphthalen-2-yl)-1,3,4-oxadiazol-2-yl)-3-(trifluoromethyl)benzamide]
6 ± 16	–	73 ± 1	22 ± 3	COc1ccc(C(=O)Nc2nnc(C3CCCCC3)o2)cc1 [AC10040, N-(5-cyclohexyl-1,3,4-oxadiazol-2-yl)-4-methoxybenzamide]
11 ± 3	–	79 ± 8	10.5 ± 2	O=C(Nc1nnc(C2CCCCC2)o1)c1cccc(F)c1 [AC10047, N-(5-cyclohexyl-1,3,4-oxadiazol-2-yl)-3-fluorobenzamide]
62 ± 8	33 ± 8	99 ± 1	6 ± 0.6	O=C(Nc1nnc(C2CCCCC2)o1)c1cccc(C(F)(F)F)c1 [AC10021, N-(5-cyclohexyl-1,3,4-oxadiazol-2-yl)-3-(trifluoromethyl)benzamide]
32 ± 12	51 ± 7	88 ± 4	8.2 ± 2	CCc1ccc(C(=O)Nc2nnc(-c3ccc(F)cc3)o2)cc1 [AC10044, 4-ethyl-N-(5-(4-fluorophenyl)-1,3,4-oxadiazol-2-yl)benzamide]
23 ± 5	101 ± 14	79 ± 9	15 ± 4	COc1cccc(C(=O)Nc2nnc(-c3ccc(F)cc3)o2)c1 [AC10034, N-(5-(4-fluorophenyl)-1,3,4-oxadiazol-2-yl)-3-methoxybenzamide]
34 ± 11	46 ± 13	94 ± 2	6.4 ± 1	COc1ccc(C(=O)Nc2nnc(-c3ccc4c(c3)CCCC4)o2)cc1 [AC10041, 4-methoxy-N-(5-(5,6,7,8-tetrahydronaphthalen-2-yl)-1,3,4-oxadiazol-2-yl)benzamide]
3 ± 6	–	65 ± 4	24.5 ± 2	O=C(Nc1nnc(C2CCCCC2)o1)c1ccccc1 [AC10003, N-(5-cyclohexyl-1,3,4-oxadiazol-2-yl)benzamide]
35 ± 1	69 ± 11	81 ± 7	10.6 ± 3	O=C(Nc1nnc(-c2ccc(F)cc2)o1)c1cccc(F)c1 [AC10046, 3-fluoro-N-(5-(4-fluorophenyl)-1,3,4-oxadiazol-2-yl)benzamide]
35 ± 4	83 ± 22	84 ± 5	10.7 ± 2	CC(C)Oc1ccc(C(=O)Nc2nnc(-c3cccs3)o2)cc1 [AC10017, 4-isopropoxy-N-(5-(thiophen-2-yl)-1,3,4-oxadiazol-2-yl)benzamide]
90 ± 0.4	–	99 ± 1	–	O=C(Nc1nnc(-c2ccc3c(c2)CCCC3)o1)c1ccc(Cl)cc1 [AC10061, 4-chloro-N-(5-(5,6,7,8-tetrahydronaphthalen-2-yl)-1,3,4-oxadiazol-2-yl)benzamide]
